# Assay results from article PMC10698726 (Molecular Pharmaceutics, 2023).
# Read-outs that look alike come from different tables or passages of the source.
# B1: OCT2 (Homo sapiens) (protein)
# chain: MPTTVDDVLEHGGEFHFFQKQMFFLLALLSATFAPIYVGIVFLGFTPDHRCRSPGVAELSLRCGWSPAEELNYTVPGPGPAGEASPRQCRRYEVDWNQSTFDCVDPLASLDTNRSRLPLGPCRDGWVYETPGSSIVTEFNLVCANSWMLDLFQSSVNVGFFIGSMSIGYIADRFGRKLCLLTTVLINAAAGVLMAISPTYTWMLIFRLIQGLVSKAGWLIGYILITEFVGRRYRRTVGIFYQVAYTVGLLVLAGVAYALPHWRWLQFTVSLPNFFFLLYYWCIPESPRWLISQNKNAEAMRIIKHIAKKNGKSLPASLQRLRLEEETGKKLNPSFLDLVRTPQIRKHTMILMYNWFTSSVLYQGLIMHMGLAGDNIYLDFFYSALVEFPAAFMIILTIDRIGRRYPWAASNMVAGAACLASVFIPGDLQWLKIIISCLGRMGITMAYEIVCLVNAELYPTFIRNLGVHICSSMCDIGGIITPFLVYRLTNIWLELPLMVFGVLGLVAGGLVLLLPETKGKALPETIEEAENMQRPRKNKEKMIYLQVQKLDIPLN
# B2: OCT3 (Homo sapiens) (protein)
# chain: MPSFDEALQRVGEFGRFQRRVFLLLCLTGVTFAFLFVGVVFLGTQPDHYWCRGPSAAALAERCGWSPEEEWNRTAPASRGPEPPERRGRCQRYLLEAANDSASATSALSCADPLAAFPNRSAPLVPCRGGWRYAQAHSTIVSEFDLVCVNAWMLDLTQAILNLGFLTGAFTLGYAADRYGRIVIYLLSCLGVGVTGVVVAFAPNFPVFVIFRFLQGVFGKGTWMTCYVIVTEIVGSKQRRIVGIVIQMFFTLGIIILPGIAYFIPNWQGIQLAITLPSFLFLLYYWVVPESPRWLITRKKGDKALQILRRIAKCNGKYLSSNYSEITVTDEEVSNPSFLDLVRTPQMRKCTLILMFAWFTSAVVYQGLVMRLGIIGGNLYIDFFISGVVELPGALLILLTIERLGRRLPFAASNIVAGVACLVTAFLPEGIAWLRTTVATLGRLGITMAFEIVYLVNSELYPTTLRNFGVSLCSGLCDFGGIIAPFLLFRLAAVWLELPLIIFGILASICGGLVMLLPETKGIALPETVDDVEKLGSPHSCKCGRNKKTPVSRSHL
# How the values were obtained:
# OCT3 [1] = molecular target: T1, OCT3 (Homo sapiens, UniProt O75751); assay: Concentration-dependent uptake of model substrates, OCT3-overexpressing HEK293 cells; assay type: in vitro ADME; conditions: this study
# T1 construct: expressed in transfected cells; host or cells: HEK293
# T1 sequence (O75751 1-556): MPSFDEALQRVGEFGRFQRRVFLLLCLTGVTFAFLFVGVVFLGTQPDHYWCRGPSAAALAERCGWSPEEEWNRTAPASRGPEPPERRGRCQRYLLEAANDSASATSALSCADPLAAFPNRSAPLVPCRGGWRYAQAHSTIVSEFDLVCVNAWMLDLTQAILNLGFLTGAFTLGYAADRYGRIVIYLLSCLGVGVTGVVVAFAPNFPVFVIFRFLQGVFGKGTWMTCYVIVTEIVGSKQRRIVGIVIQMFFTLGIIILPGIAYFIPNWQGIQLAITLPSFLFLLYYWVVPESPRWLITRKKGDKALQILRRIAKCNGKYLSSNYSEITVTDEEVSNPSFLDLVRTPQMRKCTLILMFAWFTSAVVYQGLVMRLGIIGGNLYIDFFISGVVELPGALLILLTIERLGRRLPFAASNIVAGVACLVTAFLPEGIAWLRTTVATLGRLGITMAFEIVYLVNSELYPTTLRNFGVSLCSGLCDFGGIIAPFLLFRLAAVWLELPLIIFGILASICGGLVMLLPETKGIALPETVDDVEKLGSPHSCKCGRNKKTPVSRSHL
# Procedure: (§1) Koepsell and Gorbulev (University of Würzburg, Germany).
# (§2) Prior to inhibition studies, the used model substrates were validated in concentration-dependent uptake experiments if no literature data were available (Table S2 and Figures S2 and S3). Thereby, we ensured that the model substrate concentration used in the subsequent inhibition experiments was sufficiently below the Km value of its uptake kinetics. […] On the day of the experiment, the cells were washed once with prewarmed to 37 °C HBSS (Thermo Fisher Scientific, Darmstadt, Germany) supplemented with 10 mM HEPES and pH adjusted to 7.4 (Sigma-Aldrich)—hereafter termed HBSS+. For concentration-dependent experiments, the cells were incubated with increasing substrate concentrations for 2 min. Uptake was terminated by adding ice-cold HBSS+. Afterward, the cells were washed twice with ice-cold HBSS+, and cell lysis was done with 80% (v/v) acetonitrile (LGC Standards, Wesel, Germany) to which an internal standard for eventual LC–MS/MS analysis had been added. Intracellularly accumulated substrates were then quantified by LC–MS/MS analysis, and calibration was performed with known concentrations of the respective substances. All uptake data were normalized to the number of seeded cells by measuring the total protein content in radioimmunoprecipitation assay buffer-lysed cells in a bicinchoninic acid assay.[29]
# OCT1 [2] = molecular target: T2, OCT1 (Homo sapiens, UniProt O15245); assay: Concentration-dependent uptake of model substrates, OCT1-overexpressing HEK293 cells; assay type: in vitro ADME; set-up: expressed in transfected cells; host or cells: HEK293; conditions: this study
# T2 sequence (O15245 1-554): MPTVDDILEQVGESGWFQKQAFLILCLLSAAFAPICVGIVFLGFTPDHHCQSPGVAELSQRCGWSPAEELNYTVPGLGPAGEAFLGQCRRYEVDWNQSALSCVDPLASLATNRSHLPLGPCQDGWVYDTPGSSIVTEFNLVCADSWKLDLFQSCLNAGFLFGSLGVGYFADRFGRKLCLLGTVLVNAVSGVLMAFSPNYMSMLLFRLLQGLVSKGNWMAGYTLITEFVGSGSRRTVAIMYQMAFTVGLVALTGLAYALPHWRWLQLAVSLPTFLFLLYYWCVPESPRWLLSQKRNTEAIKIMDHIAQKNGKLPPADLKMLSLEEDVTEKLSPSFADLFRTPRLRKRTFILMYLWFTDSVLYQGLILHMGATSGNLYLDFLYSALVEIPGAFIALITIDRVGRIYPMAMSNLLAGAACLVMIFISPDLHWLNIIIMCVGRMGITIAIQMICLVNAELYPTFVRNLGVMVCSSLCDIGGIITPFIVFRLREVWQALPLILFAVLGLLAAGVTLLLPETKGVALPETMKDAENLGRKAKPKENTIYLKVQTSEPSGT
# Procedure: as §1, §2
# OCT2 [3] = molecular target: T3, OCT2 (Homo sapiens, UniProt O15244); assay: Concentration-dependent uptake of model substrates, OCT2-overexpressing HEK293 cells; assay type: in vitro ADME; set-up: expressed in transfected cells; host or cells: HEK293; conditions: this study; for Km: read-out: Km ± SEM; for Clint ± SEM: vmax over Km
# T3 sequence (O15244 1-555): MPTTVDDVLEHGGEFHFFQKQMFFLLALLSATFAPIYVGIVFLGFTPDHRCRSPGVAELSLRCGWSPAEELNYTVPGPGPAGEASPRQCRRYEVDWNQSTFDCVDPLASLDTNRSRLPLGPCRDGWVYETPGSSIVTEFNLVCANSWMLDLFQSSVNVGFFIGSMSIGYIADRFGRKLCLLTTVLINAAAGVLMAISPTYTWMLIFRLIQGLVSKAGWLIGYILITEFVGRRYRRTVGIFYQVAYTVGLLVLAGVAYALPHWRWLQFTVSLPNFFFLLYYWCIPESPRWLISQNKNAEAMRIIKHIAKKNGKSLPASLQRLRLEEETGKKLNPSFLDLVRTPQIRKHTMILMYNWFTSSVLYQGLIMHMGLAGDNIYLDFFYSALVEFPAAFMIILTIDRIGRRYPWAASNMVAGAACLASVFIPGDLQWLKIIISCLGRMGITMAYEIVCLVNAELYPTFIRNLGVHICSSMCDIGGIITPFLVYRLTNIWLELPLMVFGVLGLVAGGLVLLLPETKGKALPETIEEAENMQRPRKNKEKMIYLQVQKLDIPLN
# Procedure: as §1, §2
# OCT3 [4] = molecular target: T1, OCT3; set-up: method as in earlier work; conditions: ref 3 (Gebauer et al., 2022, supplement), cited from earlier work; for Km: read-out: Km ± SEM
# OCT2 [5] = molecular target: T3, OCT2; assay: Inhibition of model substrate uptake in OCT2-overexpressing HEK293 cells; conditions: OCT2, 20 μM inhibitor, 5 min; for inhibition at 5 min, 20 μM: human
# OCT3 [6] = molecular target: T1, OCT3; assay: Inhibition of model substrate uptake in OCT3-overexpressing HEK293 cells; assay type: cell-based; conditions: 20 μM inhibitor, 5 min
# How it was run: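 Transporter-overexpressing HEK293 cells were incubated 5 min in HBSS+ with 2 μM model substrate, with or without 20 μM inhibitor or increasing inhibitor concentrations. Uptake was read as ASP^+ fluorescence or by LC–MS/MS, with empty-vector uptake subtracted. IC50 came from a Hill fit of activity versus log concentration.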
# OCT1 [7] = molecular target: T2, OCT1; assay: Inhibition of model substrate uptake in OCT1-overexpressing HEK293 cells; assay type: cell-based; set-up: expressed in transfected cells; host or cells: HEK293; conditions: human, 20 μM inhibitor, 5 min
# Procedure: as §1
# Fluorescence quantification was performed in technical duplicates.
# not read = substrate: CCC(CO)NCCNC(CC)CO; assay: not read
# [8] = HEK293, 5 min, read-out: (S)-Zolmitriptan inhibition [%], OCT3, 2 μM (S)-zolmitriptan
# [9] = HEK293, 5 min, read-out: (S,S)-Ethambutol inhibition [%], OCT3, 2 μM (S,S)-ethambutol
molecule,measurement,setting,value
"CN(C)c1ccc(C=Cc2cc[n+](C)cc2)cc1 [ASP+, 4-(4-(dimethylamino)styryl)-N-methylpyridinium]",vmax ± SEM [pmol × mg Protein−1 × min−1],OCT3 [1],3381 pmol × mg Protein−1 × min−1
same,Km,OCT3 [1]; read-out: Km ± SEM,16.5 µM
same,Clint ± SEM,OCT3 [1]; vmax over Km,205
same,Km,"OCT1 [2]; 2 min uptake, read-out: Km ± SEM",11.7 µM
same,vmax ± SEM [pmol × mg Protein−1 × min−1],OCT1 [2],2678 pmol × mg Protein−1 × min−1
same,Clint ± SEM,OCT1 [2]; vmax over Km,230
same,vmax ± SEM [pmol × mg Protein−1 × min−1],OCT2 [3],1812 pmol × mg Protein−1 × min−1
same,Km,OCT2 [3],29.6 µM
same,Clint ± SEM,OCT2 [3],61.3
NC(N)=Nc1nc(CSCCC(N)=NS(N)(=O)=O)cs1 [Famotidine],Km,OCT3 [4],8.91 µM
same,Clint ± SEM,OCT3 [4],27.2
same,vmax ± SEM [pmol × mg Protein−1 × min−1],OCT3 [4],242 pmol × mg Protein−1 × min−1
CC(C)Cc1ccc([C@H](C)C(=O)O)cc1 [(S)-Ibuprofen],"inhibition at 5 min, 20 μM","OCT2 [5]; OCT2-overexpressing HEK293 cells, pH 7.4, probe (S,S)-ethambutol (2 μM), (S,S)-Ethambutol inhibition [%], 2 μM (S,S)-ethambutol",14.5%
same,"inhibition at 5 min, 20 μM","OCT2 [5]; OCT2-overexpressing HEK293 cells, pH 7.4, probe ASP+ (2 μM), ASP+ inhibition [%], 2 μM ASP+",10.9%
same,"inhibition at 5 min, 20 μM","OCT2 [5]; OCT2-overexpressing HEK293 cells, pH 7.4, probe N-ethyllidocaine (2 μM), N-Ethyllidocaine inhibition [%], 2 μM N-ethyllidocaine",10.4%
same,inhibition at 20 µM,OCT3 [6]; [8],-0.8%
same,inhibition at 20 µM,OCT3 [6]; [9],11.3%
same,inhibition at 20 µM,"OCT3 [6]; HEK293, OCT3, 2 μM ASP+, read-out: ASP+ inhibition [%]",12.9%
same,"inhibition at 5 min, 20 μM","OCT1 [7]; OCT1-overexpressing HEK293 cells, pH 7.4, probe (S,S)-ethambutol (2 μM), (S,S)-Ethambutol inhibition [%], OCT1, 2 μM (S,S)-ethambutol",-10.6%
same,"inhibition at 5 min, 20 μM","OCT1 [7]; OCT1-overexpressing HEK293 cells, pH 7.4, probe ASP+ (2 μM), OCT1, 2 μM ASP+, mean of three experiments, read-out: ASP+ inhibition [%]",8.8%
same,"inhibition at 5 min, 20 μM","OCT1 [7]; OCT1-overexpressing HEK293 cells, pH 7.4, probe sumatriptan (2 μM), OCT1, 2 μM sumatriptan, read-out: Sumatriptan inhibition [%]",-3.4%
CC[N+](CC)(CC)CC(=O)Nc1c(C)cccc1C [N-Ethyllidocaine],Km,OCT3 [4],46.3 µM
same,Clint ± SEM,OCT3 [4],8.80
same,vmax ± SEM [pmol × mg Protein−1 × min−1],OCT3 [4],407 pmol × mg Protein−1 × min−1
same,vmax ± SEM [pmol × mg Protein−1 × min−1],OCT2 [3],5172 pmol × mg Protein−1 × min−1
same,Km,OCT2 [3],87.7 µM
same,Clint ± SEM,OCT2 [3],58.9
O=C(OC1C[N+]2(CCCOc3ccccc3)CCC1CC2)C(O)(c1cccs1)c1cccs1 [(R)-Aclidinium],"(S,S)-Ethambutol inhibition [%]","OCT2 [5]; 2 μM (S,S)-ethambutol",-0.8%
same,"inhibition at 5 min, 20 μM","OCT2 [5]; pH 7.4, ASP+ inhibition [%], 2 μM ASP+",108%
same,"inhibition at 5 min, 20 μM","OCT2 [5]; pH 7.4, N-Ethyllidocaine inhibition [%], 2 μM N-ethyllidocaine",69.1%
same,inhibition at 20 µM,OCT3 [6]; [8],43.3%
same,inhibition at 20 µM,OCT3 [6]; [9],62.8%
same,inhibition at 20 µM,"OCT3 [6]; HEK293, read-out: ASP+ inhibition [%], OCT3, 2 μM ASP+",37.1%
same,"inhibition at 5 min, 20 μM","OCT1 [7]; pH 7.4, (S,S)-Ethambutol inhibition [%], OCT1, 2 μM (S,S)-ethambutol",98.8%
same,"inhibition at 5 min, 20 μM","OCT1 [7]; pH 7.4, OCT1, 2 μM ASP+, mean of three experiments, read-out: ASP+ inhibition [%]",71.6%
same,"inhibition at 5 min, 20 μM","OCT1 [7]; pH 7.4, OCT1, 2 μM sumatriptan, read-out: Sumatriptan inhibition [%]",93.6%
B1,Km,"not read; other: OCT2, this study",163 µM
same,Vmax,"not read; other: OCT2, this study",0.00597 µmol/min/mg
B2,Km,"not read; other: OCT3, this study",146 µM
same,Vmax,"not read; other: OCT3, this study",0.00246 µmol/min/mg
